Structures are written as SMILES.

The test system of test [1] is MCF7 cells. Put plainly: BrdU incorporation ELISA in MCF7. It counts as cell-based. To be noted: Homo sapiens, 3 DT. Here is the method: (§1) Relative IC50/EC50 values were determined by curve fitting to a four parameter logistic equation: Y = bottom + ((top-bottom)/ (1+exp(HillSlope*(X – LnIC50)), where X is the natural log of dose/concentration, Y is response, decreasing as X increases, top and bottom are plateaus in the same units as Y, lnIC50 is the natural log of potency, in the same log units as X, and HillSlope measures the steepness of the curve. Data were plotted using GraphPad Prism.
After treatment, an ELISA for BrdU detection was performed (Roche, Cat. No. 11 669 915 001) following the vendor’s manual. Envision® (PerKinElmer) was used to measure the light emission of the samples and raw data were processed with Microsoft Excel and relative EC50 values were determined as described above. For normalization, the mean value obtained from cells treated with 2 µM […] doxorubicin (Sigma #D1515) was set as the minimum, and that obtained from treatment with the vehicle (0.2% DMSO) was set as the maximum.

Test [2] concerns MCF7 cells. Put plainly: SA-β-gal immunofluorescence (senescence), MCF7. It counts as cell-based, human. How it is done: After treatment, cells were fixed, washed with PBS, permeabilized and β-gal was detected using anti-β-galactosidase antibody; for multiplexed assays, TUNEL staining was carried out using Roche TUNEL reagents as indicated above. Nuclei were also stained with PI for total cell counting. Plates were read in an Acumen Explorer Ex3 (TTP Labtech) and raw data were analyzed with Cellista software. Outputs were expressed as percentages of each identified subpopulation 1) positive β-gal, and 2) total cell number. The percentages of β-gal positive cells, TUNEL positive cells, and cell numbers were plotted in Microsoft Excel.

Test [3] deals with pRb (Ser780). Nature of the test: High content imaging of Rb phosphorylation (Ser780), MDA-MB-361. It counts as cell-based. The following applies: Homo sapiens, 16 hours, mean ± Stdev n = 2. How it is done: as §1
(§2) As controls, cells were treated with 10 µM palbociclib or vehicle ( 0.2 % v/v DMSO). Additional details for cell-based assays are provided in the Supplemental Methods. […]
(§3) www.impactjournals.com/oncotarget/ Oncotarget Supplementary Materials
(§4) Preclinical characterization of abemaciclib in hormone receptor […]
(§5) METHODS High content imaging cell-based assays for monitoring phosphorylation of Rb (ser780), G1 arrest and
(§6) Enzyme kinetics of CDK6/cyclin D3 complexes Cells were fixed with para-formaldehyde and Rb phosphorylation at Serine 780 was detected using CDK6/cyclin D3 activity was measured by the a primary mouse anti-Rb (PS780) antibody followed phosphorylation of CTRF using [g-33P] […] Plates were read in an kinase buffer containing 68 mM Hepes at pH 7.5, 6.67 mM Acumen Explorer eX3 (TTP Labtech). […]
(§7) (EDTA) was used to determine the level of background evaluated by measuring PI signal using high content 33P in the absence of enzyme activity. […]

The target of the next test is CDK4/cyclin D1 complexes. On the set-up: method as in PMID 24919854. The following applies: cell-free; read-out: Ki^ATP CDK4/cyclin D1; cited from earlier work.
The subject of another test is FOXM1. Nature of the test: FOXM1 protein expression, EFM-19. It counts as cell-based. The following applies: Homo sapiens, 1 DT, read-out: IC50 reduction in FOXM1 positive cells. How it is done: as §1
After 72 hours, cells were stained with an anti-FOXM1 antibody and a secondary goat anti-rabbit IgG, Alexa Fluor® 488 conjugate; nuclei were stained with propidium iodide (PI). Alternatively, for assessment of Ki-67 levels, cells were treated for 2 DT and then stained with Ki-67 and a secondary goat anti-rabbit IgG, Alexa Fluor® 488 conjugate. Plates were read in an Acumen Explorer Ex3 (TTP Labtech) using Cellista software and the percentages of FOXM1 positive and Ki-67 positive cells were calculated over the background signal. Data were normalized in Excel using the mean value obtained from treatment with 2 µM BEZ235 as the minimum and the mean value obtained from treatment with 0.2% DMSO as the maximum.

The subject of test [4] is pRb (Ser780). Nature of the test: High content imaging of Rb phosphorylation (Ser780), MCF7. In kind it is cell-based. To be noted: Homo sapiens, mean ± Stdev n = 2. How it is done:
as §1, §2, §3, §4, §5, §6, §7

Compound `CCN1CCN(Cc2ccc(Nc3ncc(F)c(-c4cc(F)c5nc(C)n(C(C)C)c5c4)n3)nc2)CC1` [abemaciclib, Abemaciclib] registered an EC50 in the test with MCF7 cells [1] of 0.178 µM. The “% β-gal Positive MCF7 Cells” value in the test on MCF7 cells [2] (0.5 µM, 4 days) came out at 16.15 ± 1.48%; in the test on MCF7 cells [2] (0.5 µM, 7 days) it was 16.25 ± 0.35%; in the test on MCF7 cells [2] (0.5 µM, 10 days), 19.7 ± 1.83%; in the test on MCF7 cells [2] (2 µM, 4 days) it was 42.45 ± 5.86%; with MCF7 cells [2] (2 µM, 7 days), 55.4 ± 18.8%; in the test on MCF7 cells [2] (2 µM, 10 days), 30.85 ± 3.46%. The 50% inhibitory concentration (IC50) in the test with pRb (Ser780) [3] is 0.067 ± 0.037 µM; in the test with FOXM1 it was 0.008 µM; in the test on pRb (Ser780) [4], 0.013 ± 0.002 µM. The Ki on CDK4/cyclin D1 complexes was 0.0006 µM.

By EC50 is commonly meant the concentration at which the effect is half-maximal. Higher therefore signals weaker potency. Broadly, the IC50 is the concentration that inhibits the measured activity by half.
